Reference: patent US8865408B2, “Signature for the diagnosis of cancer aggressiveness and genetic instability” (Centre National de la Recherche Scientifique (CNRS), priority 2009, dated 2014)

What was measured:
[1] = test system: POLQ overexpressing (Q1, Q2, Q3) and isogenic control (CTL2, CTL5) cells; experiment: Clonogenic assay, sensitivity to alkylating agents; format: cell-based, human; settings: POLQ over-expressing clones vs isogenic controls; MMS 1 h at 37° C., MNU continuous
Description: FIG. 9. Sensitivity to alkylating agents. Drug sensitivity was determined by clonogenic assay. Sensitivity of POLQ overexpressing (Q1, Q2, Q3) and isogenic control (CTL2, CTL5) cells to methyl methanesulfonate (MMS) and N-methyl-N-nitrosourea (MNU). Survival is expressed as the relative plating efficiency of treated cells to the controls. […] Results are the mean+/−SD of at least three separate experiments performed in duplicate.
POLQ overexpression was immuno-detected as published (Seki et al. Nucleic Acids Res 31: 6117-6126, 2003), using purified protein as a size control.
Treatment was 1 h at 37° C. for methyl methanesulfonate (MMS) and continuous for N-methyl-N-nitrosourea (MNU) Immunodetection of γ-H2AX and PT68-CHK2 was carried out according to Rao et al. (Rao et al. Mol Cancer Res 5:713-24, 2007).
A proposed role of POLQ in BER could be that over-expressed POLQ interferes with the BER pathway and leads to an accumulation of endogenous DNA damage (including damage generated by reactive oxygen species). To test this hypothesis, we measured the sensitivity of the POLQ over-expressing cells to methyl-methanesulfonate (MMS) and Nitroso-N-methylurea (MNU) (FIG. 9), both of which induce DNA damage repaired by BER.

MCF7 cells = experiment: Clonogenic assay, sensitivity to Chk2 inhibitor; format: cell-based; settings: MCF7 compared with MDA-MB231 cells, 1 μM to 150 μM during 16 hours, seven more days
Description: FIG. 12. Effect of POLQ gene expression level on sensitivity to a Chk2 inhibitor. […] Survival is determined in a clonogenic assay. MCF7: squares; MDA-MB231: diamonds (B) POLQ expression is higher in MCF7 than in MDA-MB231. Gene expression levels are assayed by RT-PCR. C51 is a normal breast cell line.
MDA-MB231 and MCF7 breast cancer cells (ATCC) were grown in RPMI 1640+ glutamax medium. A 13.8 mM Chk2 inhibitor II Hydrate (Sigma RefC3742) stock solution was prepared by diluting the agent in DMSO (Sigma) and stored at −20° C. This solution was diluted in culture medium to give as indicated the final drug concentration. Cells were exposed to different concentrations ranging from 1 μM to 150 μM during 16 hours. Cells were washed with PBS buffer, fresh medium was added and cells were incubated for seven more days. Cells were fixed with NaCl 0.9% and stained with crystal violet (Sigma C3886). Clones containing more than 20 cells were counted. For the clonogenic assay 400 cells were seeded in six-well plates and incubated overnight. The POLQ expression was measured by real-time PCR as described above.
Cells overexpressing POLQ accumulate DNA damage. […] In order to test this hypothesis, the viability of the MCF7 and MDA-MB231 cells was determined in the presence of increasing amounts of a Chk2 inhibitor. […]

Compound	effect of POLQ over-expression on survival to treatment [1]	sensitivity to Chk2 inhibitor (survival in clonogenic assay) (MCF7 cells)	sensitivity to Chk2 inhibitor (survival in clonogenic assay) (MCF7 cells; listed as CHK2 inhibitor)
COS(C)(=O)=O [MMS, methyl methanesulfonate]	did not significantly affect survival		
NC(=O)c1ccc2nc(-c3ccc(Oc4ccc(Cl)cc4)cc3)[nH]c2c1.O [Chk2 inhibitor II Hydrate]		higher sensitivity	hypersensitive
CN(N=O)C(N)=O [MNU, N-methyl-N-nitrosourea]	did not significantly affect survival		
